This note sets out measurements from ChEMBL document CHEMBL1126483 (Bioorg Med Chem Lett, 1993).

Assay [1] addresses Neurotensin receptor type 1 (Mus musculus, UniProt O88319). Kind of assay: Inhibition of specific binding of [125I]-Tyr3-NT(1-13) to NT receptors in neonatal mouse whole brain (minus cerebellum). The format is tissue-based.
Assay [2] deals with Neurotensin receptor type 1 (Mus musculus) (UniProt O88319). Kind of assay: Tested for change in binding affinity to Neurotensin (NT) receptor in neonatal mouse whole brain (minus cerebellum). The format is tissue-based.
Chain of Neurotensin receptor type 1 (Mus musculus) (O88319 whole entry): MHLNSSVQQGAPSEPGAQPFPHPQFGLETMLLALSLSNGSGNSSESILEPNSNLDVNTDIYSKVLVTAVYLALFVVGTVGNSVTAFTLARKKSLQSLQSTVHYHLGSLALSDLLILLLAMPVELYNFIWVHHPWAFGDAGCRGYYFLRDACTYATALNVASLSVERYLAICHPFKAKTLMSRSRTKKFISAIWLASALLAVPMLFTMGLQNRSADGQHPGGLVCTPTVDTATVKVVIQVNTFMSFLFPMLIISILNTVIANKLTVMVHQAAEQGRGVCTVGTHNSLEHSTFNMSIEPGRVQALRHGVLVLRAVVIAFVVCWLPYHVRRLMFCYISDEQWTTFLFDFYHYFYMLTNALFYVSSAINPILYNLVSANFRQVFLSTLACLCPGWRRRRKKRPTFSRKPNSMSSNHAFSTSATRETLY
The target is the same in assay [3]. Particulars: Cerebellum.
Description: Tested for change in binding affinity in neonatal mouse whole brain (minus cerebellum)

Peptide text beside a SMILES is read from it.

Chain of Neurotensin receptor type 1 (O88319 whole entry): as above

In assay [1], `CC[C@H](C)[C@H](NC(=O)[C@H](Cc1ccc(O)cc1)NC(=O)[C@@H]1CCCN1C(=O)[C@H](CCCNC(=N)N)NC(=O)[C@H](C)N)C(=O)N[C@@H](CC(C)C)C(=O)O` gave a Ki of 0.25 nM. Turning to `CC[C@@H](C)[C@H](NC(=O)[C@H](Cc1ccc(O)cc1)NC(=O)[C@@H]1CCCN1C(=O)[C@H](CCCN=C(N)N)NC(=O)[C@@H](N)CCCN=C(N)N)C(=O)N[C@@H](C)C(=O)O`, the Ki ratio in assay [2] came out at 11000.

As to `CC[C@H](C)[C@H](NC(=O)[C@H](Cc1ccc(O)cc1)NC(=O)[C@@H]1CCCN1C(=O)[C@H](CCCN=C(N)N)NC(=O)[C@H](CCCN=C(N)N)NC(=O)[C@@H]1CCCN1C(=O)[C@H](CCCCN)NC(=O)[C@H](CC(N)=O)NC(=O)[C@H](CCC(=O)O)NC(=O)[C@H](Cc1ccc(O)cc1)NC(C)=O)C(=O)N[C@@H](CC(C)C)C(=O)O` (Ac-YENKPRRPYIL-OH), the Ki in assay [1] came to 0.21 nM.

With `CC[C@H](C)[C@H](NC(=O)[C@H](Cc1ccc(O)cc1)NC(=O)[C@@H]1CCCN1C(=O)[C@H](CCCNC(=N)N)NC(=O)[C@H](CCCNC(=N)N)NC(=O)[C@@H]1CCCN1C(=O)[C@H](CCCCN)NC(C)=O)C(=O)N[C@@H](CC(C)C)C(=O)O`, in assay [1], the Ki came to 0.024 nM. Turning to `CC[C@@H](C)[C@H](NC(=O)[C@H](Cc1ccc(O)cc1)NC(=O)[C@H](C)NC(=O)[C@H](CCCN=C(N)N)NC(=O)[C@@H](N)CCCN=C(N)N)C(=O)N[C@@H](CC(C)C)C(=O)O`, in assay [2], the Ki ratio worked out at 50.

`CC[C@@H](C)[C@H](NC(=O)[C@H](Cc1ccc(O)cc1)NC(=O)[C@@H]1CCCN1C(=O)[C@H](CCCNC(=N)N)NC(=O)[C@@H](N)CCCNC(=N)N)C(=O)N[C@@H](CC(C)C)C(=O)O` yielded a Ki(1.8x10e-11) in assay [3] of 1 M. In assay [1], `CC[C@H](C)[C@H](NC(=O)[C@H](C)NC(=O)[C@@H]1CCCN1C(=O)[C@H](CCCN=C(N)N)NC(=O)[C@@H](N)CCCN=C(N)N)C(=O)N[C@@H](CC(C)C)C(=O)O` registered a Ki of 110 nM.

Consider `CC[C@@H](C)[C@H](NC(=O)[C@H](C)NC(=O)[C@@H]1CCCN1C(=O)[C@H](CCCN=C(N)N)NC(=O)[C@@H](N)CCCN=C(N)N)C(=O)N[C@@H](CC(C)C)C(=O)O`, for which the Ki ratio in assay [2] was found to be 6100.

On to `CC[C@H](C)[C@H](NC(=O)[C@H](Cc1ccc(O)cc1)NC(=O)[C@@H]1CCCN1C(=O)[C@H](CCCNC(=N)N)NC(=O)[C@@H](N)CCCNC(=N)N)C(=O)N[C@@H](C)C(=O)O`, for which the Ki in assay [1] was 200 nM. In the case of `CC[C@@H](C)[C@H](NC(=O)[C@H](Cc1ccc(O)cc1)NC(=O)[C@@H]1CCCN1C(=O)[C@H](C)NC(=O)[C@@H](N)CCCN=C(N)N)C(=O)N[C@@H](CC(C)C)C(=O)O`, the Ki ratio in assay [2] turned out to be 120. Take `CC[C@H](C)[C@H](NC(=O)[C@H](Cc1ccc(O)cc1)NC(=O)[C@@H]1CCCN1C(=O)[C@H](CCCNC(=N)N)NC(=O)[C@H](CCCNC(=N)N)NC(=O)[C@@H]1CCCN1C(=O)[C@H](CCCCN)NC(=O)[C@H](CC(N)=O)NC(C)=O)C(=O)N[C@@H](CC(C)C)C(=O)O` (Ac-NKPRRPYIL-OH): the Ki in assay [1] turned out to be 0.013 nM. `CC[C@H](C)[C@H](NC(=O)[C@H](Cc1ccc(O)cc1)NC(=O)[C@@H]1CCCN1C(=O)[C@H](CCCNC(=N)N)NC(=O)[C@H](CCCNC(=N)N)NC(=O)[C@@H]1CCCN1C(=O)[C@H](CCCCN)NC(=O)[C@H](CC(N)=O)NC(=O)[C@H](CCC(=O)O)NC(=O)[C@H](Cc1ccc(O)cc1)NC(=O)[C@H](CC(C)C)NC(C)=O)C(=O)N[C@@H](CC(C)C)C(=O)O` came in with a Ki in assay [1] of 0.11 nM. Still for that read-out and setting: for `CC(C)C[C@H](NC(=O)[C@H](C)NC(=O)[C@H](Cc1ccc(O)cc1)NC(=O)[C@@H]1CCCN1C(=O)[C@H](CCCNC(=N)N)NC(=O)[C@@H](N)CCCNC(=N)N)C(=O)O` (H-RRPYAL-OH) the value was 4.5 nM; for `CC[C@H](C)[C@H](NC(=O)[C@H](Cc1ccc(O)cc1)NC(=O)[C@@H]1CCCN1C(=O)[C@H](CCCNC(=N)N)NC(=O)[C@H](CCCNC(=N)N)NC(=O)[C@@H]1CCCN1C(C)=O)C(=O)N[C@@H](CC(C)C)C(=O)O` (Ac-PRRPYIL-OH), 0.1 nM; for `CC[C@H](C)[C@H](NC(=O)[C@H](Cc1ccc(O)cc1)NC(=O)[C@H](C)NC(=O)[C@H](CCCN=C(N)N)NC(=O)[C@@H](N)CCCN=C(N)N)C(=O)N[C@@H](CC(C)C)C(=O)O`, 0.92 nM.

`CC[C@@H](C)[C@H](NC(=O)[C@H](C)NC(=O)[C@@H]1CCCN1C(=O)[C@H](CCCN=C(N)N)NC(=O)[C@@H](N)CCCN=C(N)N)C(=O)N[C@@H](C)C(=O)O`: the Ki ratio in assay [2] stood at 220000. In assay [1], `CC[C@H](C)[C@H](NC(=O)[C@H](Cc1ccc(O)cc1)NC(=O)[C@@H]1CCCN1C(=O)[C@H](C)NC(=O)[C@@H](N)CCCN=C(N)N)C(=O)N[C@@H](CC(C)C)C(=O)O` yielded a Ki of 2.1 nM. As for `CC(C)C[C@H](NC(=O)[C@H](C)NC(=O)[C@H](Cc1ccc(O)cc1)NC(=O)[C@@H]1CCCN1C(=O)[C@H](CCCN=C(N)N)NC(=O)[C@@H](N)CCCN=C(N)N)C(=O)O` (H-RRPYAL-OH), the Ki ratio in assay [2] was 250. As to `CC[C@H](C)[C@H](NC(=O)[C@H](C)NC(=O)[C@@H]1CCCN1C(=O)[C@H](CCCN=C(N)N)NC(=O)[C@@H](N)CCCN=C(N)N)C(=O)N[C@@H](C)C(=O)O`, the Ki in assay [1] stood at 3900 nM. Same read-out and setting: the figure for `CC[C@H](C)[C@H](NC(=O)[C@H](Cc1ccc(O)cc1)NC(=O)[C@@H]1CCCN1C(=O)[C@H](CCCNC(=N)N)NC(=O)[C@@H](N)CCCNC(=N)N)C(N)=O` is 12000 nM; for `CC[C@H](C)[C@H](NC(=O)[C@H](Cc1ccc(O)cc1)NC(=O)[C@@H]1CCCN1C(=O)[C@H](CCCNC(=N)N)NC(=O)[C@H](CCCNC(=N)N)NC(=O)[C@@H]1CCCN1C(=O)[C@H](CCCCN)NC(=O)[C@H](CC(N)=O)NC(=O)[C@H](CCC(=O)O)NC(C)=O)C(=O)N[C@@H](CC(C)C)C(=O)O` (Ac-ENKPRRPYIL-OH) it is 0.12 nM. Take `CC[C@@H](C)[C@H](NC(=O)[C@H](Cc1ccc(O)cc1)NC(=O)[C@@H]1CCCN1C(=O)[C@H](CCCN=C(N)N)NC(=O)[C@H](C)N)C(=O)N[C@@H](CC(C)C)C(=O)O`: the Ki ratio in assay [2] was 14.

As usually defined, the Ki is the equilibrium dissociation constant of an inhibitor or competing ligand from its target. A high value points to a looser hold on the target.
